Experimental data taken from patent US7141394B2, “More stable analog of isopropyl thiogalactoside for induction of protein expression” (Iowa State University Research Foundation, Inc., priority 2003, dated 2006).
Entries after “also recorded” stand apart in the source; their conditions may differ.

What was measured:
lac promoter = assay: EGFP fluorescence reporter assay of induction of protein expression under the lac promoter; format: cell-based, E. coli; conditions: for EGFP fluorescence emission at 507 nm after excitation at 488 nm, normalized for the number of cells: induced at OD600 0.7, versus culture without inducer
Description: To compare the ability of the C-glycoside to take the place of IPTG in the induction of protein expression, assays of promoter activity that rely on production of a fluorescent protein were pursued. Reporters for gene activity in bacteria that rely on green fluorescent protein (GFP) and its variants have become very popular as they have been validated by direct comparison to traditional reporter assays using either chloroamphenicol acetyltransferase or β-galactosidase. For bacterial studies, the enhanced green fluorescent protein (EGFP) is particularly useful as it is not toxic to E. coli like the wild type GFP itself and the protein folds and autocatalyzes formation of its fluorophore with a half-life of less than 45 minutes rather than hours. Therefore, the gene for EGFP (BD Biosciences) was ligated into a pET vector plasmid using NcoI and EcoRI in order to have control of EGFP protein expression with a lac promoter system and to have low background protein expression levels. This plasmid was transformed into E. coli BL21 DE(3) cells for protein expression studies. The cells were grown to an optical density of 0.7 (at 600 nm) and then protein production was induced with either IBCG or IPTG. The fluorescence emission at 507 nm after excitation at 488 nm, normalized for the number of cells, was plotted as a function of time (data not shown) as previously reported.

[1] = Stability of the inducer in solution on storage; format: physicochemical; conditions: ambient / room temperature; in water
Description: This improved stability feature of IBCG also results in more accurate concentrations of the compound when used in experiments.
The latter property is especially valuable for small scale culture induction and for cases in which a more precise concentration of inducer is desirable.

[2] = E. coli BL21 DE(3) with pET-EGFP plasmid

Row | Structure (SMILES) | EGFP fluorescence emission at 507 nm after excitation at 488 nm, normalized for the number of cells (lac promoter; [2]) | EGFP fluorescence of IBCG induced cells compared with IPTG induced cells (lac promoter; E. coli BL21 DE(3) with pET-EGFP plasmid, induction times of greater than four hours) | cell permeability (lac promoter; E. coli cells, inferred from induction of protein expression) | stability in solution [1]
1 | CC(C)CC1OC(CO)C(O)C(O)C1O [IBCG, 1-isobutyl-,β-D-galactose] | considerably larger | even greater fluorescence than the IPTG induced cells | retains cell permeability | stable in solution at ambient temperature; also recorded: can be autoclaved in water and stored in room temperature
2 | CC(C)S[C@@H]1O[C@H](CO)[C@H](O)[C@H](O)[C@H]1O [IPTG, isopropyl-β-D-thiogalactopyranoside, reference compound] | considerably larger |  |  | 
